According to patent US20250188069A1, “COMPOUNDS AND METHODS FOR DEGRADING CASEIN KINASE 1 ALPHA” (PIN THERAPEUTICS, INC., priority 2022, published 2025):
Counter-ions that a name gives are not always drawn.

system: MV-4-11 cells; test: AML cell viability assay (RealTime-Glo); assay type: cell-based; settings: Homo sapiens, MV4-11, 44 h, read-out: Cell viability classification

SMILES	IC50
CCCCCN(CCCCNC(=O)CCC)c1cccc2c1CN(C1CCC(=O)NC1=O)C2=O (stereo not shown) [Compound 148, N-(4-((2-(2,6-dioxopiperidin-3-yl)-1-oxoisoindolin-4-yl)(pentyl)amino)butyl)butyramide]	100 to 1000 nM
CCCCCN(CCCCNC(=O)CC(C)C)c1cccc2c1CN(C1CCC(=O)NC1=O)C2=O (stereo not shown) [Compound 149, N-(4-((2-(2,6-dioxopiperidin-3-yl)-1-oxoisoindolin-4-yl)(pentyl)amino)butyl)-3-methylbutanamide]	> 1000 nM

same assay, conditions: Homo sapiens, MV4-11; IC50 class; MV-4-11 cells, RealTime-Glo after 44 hrs of treatment (TABLE 1); read-out: Cell viability classification

IC50	SMILES
> 1000 nM	CCCN(CCN)c1cccc2c1CN(C1CCC(=O)NC1=O)C2=O (stereo not shown) [Compound 49, 3-(4-((2-aminoethyl)(propyl)amino)-1-oxoisoindolin-2-yl)piperidine-2,6-dione]
100 to 1000 nM	CCCN(CCCN)c1cccc2c1CN(C1CCC(=O)NC1=O)C2=O (stereo not shown) [Compound 53, 3-(4-((3-aminopropyl)(propyl)amino)-1-oxoisoindolin-2-yl)piperidine-2,6-dione]

Continued, compound first:

SMILES	IC50
N[C@H]1CC[C@H](N(CCc2ccccc2)c2cccc3c2CN(C2CCC(=O)NC2=O)C3=O)CC1 (stereo partly shown) [Compound 247, 3-(4-(((1r,4r)-4-aminocyclohexyl)(phenethyl)amino)-1-oxoisoindolin-2-yl)piperidine-2,6-dione, HCl]	100 to 1000 nM
CCCCCN(c1cccc2c1CN(C1CCC(=O)NC1=O)C2=O)[C@H]1CCC[C@H](N)C1 (stereo partly drawn) [Compound 327, 3-(4-(((1S,3S)-3-aminocyclohexyl)(pentyl)amino)-1-oxoisoindolin-2-yl)piperidine-2,6-dione]	< 100 nM
CCCCCN(c1cccc2c1CN(C1CCC(=O)NC1=O)C2=O)[C@H]1CCC[C@@H](N)C1 (stereo partly drawn) [Compound 328, 3-(4-(((1S,3R)-3-aminocyclohexyl)(pentyl)amino)-1-oxoisoindolin-2-yl)piperidine-2,6-dione]	< 100 nM
CC(C)(C)CCN(c1cccc2c1CN(C1CCC(=O)NC1=O)C2=O)[C@H]1CC[C@@H](CN)CC1 (stereo partly shown) [Compound 332, 3-(4-(((1s,4s)-4-(aminomethyl)cyclohexyl)(3,3-dimethylbutyl)amino)-1-oxoisoindolin-2-yl)piperidine-2,6-dione]	< 100 nM
C[C@H]1CC[C@@H](N(c2cccc3c2CN(C2CCC(=O)NC2=O)C3=O)[C@H]2CC[C@@H](CN)CC2)CC1 (stereo partly drawn) [Compound 334, 3-(4-(((1s,4S)-4-(aminomethyl)cyclohexyl)((1s,4S)-4-methylcyclohexyl)amino)-1-oxoisoindolin-2-yl)piperidine-2,6-dione]	> 1000 nM
N[C@H]1CC[C@H](N(CCCC2CCCOC2)c2cccc3c2CN(C2CCC(=O)NC2=O)C3=O)CC1 (stereo partly shown) [Compound 340, 3-(4-(((1r,4r)-4-aminocyclohexyl)(3-(tetrahydro-2H-pyran-3-yl)propyl)amino)-1-oxoisoindolin-2-yl)piperidine-2,6-dione, HCl]	100 to 1000 nM
N[C@H]1CC[C@H](N(CCCC2CCCCO2)c2cccc3c2CN(C2CCC(=O)NC2=O)C3=O)CC1 (stereo partly shown) [Compound 341, 3-(4-(((1r,4r)-4-aminocyclohexyl)(3-(tetrahydro-2H-pyran-2-yl)propyl)amino)-1-oxoisoindolin-2-yl)piperidine-2,6-dione, HCl]	100 to 1000 nM
N[C@H]1CC[C@H](N(CCC=C2CCOCC2)c2cccc3c2CN(C2CCC(=O)NC2=O)C3=O)CC1 (stereo partly shown) [Compound 344, 3-(4-(((1r,4r)-4-aminocyclohexyl)(3-(tetrahydro-4H-pyran-4-ylidene)propyl)amino)-1-oxoisoindolin-2-yl)piperidine-2,6-dione. Formic Acid]	100 to 1000 nM
N[C@H]1CC[C@H](N(CCCC2CCOC2)c2cccc3c2CN(C2CCC(=O)NC2=O)C3=O)CC1 (stereo partly shown) [Compound 345, 3-(4-(((1r,4r)-4-aminocyclohexyl)(3-(tetrahydrofuran-3-yl)propyl)amino)-1-oxoisoindolin-2-yl)piperidine-2,6-dione]	100 to 1000 nM

same assay, conditions: Homo sapiens, MV4-11; IC50 class; MV-4-11 cells, RealTime-Glo after 44 hrs of treatment (TABLE 2); read-out: Cell viability classification

IC50	SMILES
100 to 1000 nM	NCCCCN(CCCCN)c1cccc2c1CN(C1CCC(=O)NC1=O)C2=O (stereo not shown) [Compound 96, 3-(4-(bis(4-aminobutyl)amino)-1-oxoisoindolin-2-yl)piperidine-2,6-dione dihydrochloride]
> 1000 nM	NCCCCN(CCCN)c1cccc2c1CN(C1CCC(=O)NC1=O)C2=O (stereo not shown) [Compound 97, 3-(4-((4-aminobutyl)(3-aminopropyl)amino)-1-oxoisoindolin-2-yl)piperidine-2,6-dione dihydrochloride]
100 to 1000 nM	NCCCCN(c1cccc2c1CN(C1CCC(=O)NC1=O)C2=O)[C@H]1CC[C@H](CN)CC1 (stereo partly drawn) [Compound 105, 3-(4-((4-aminobutyl)((1R,4R)-4-(aminomethyl)cyclohexyl)amino)-1-oxoisoindolin-2-yl)piperidine-2,6-dione, 2HCl]
100 to 1000 nM	NCCCCN(C[C@H]1CC[C@@H](N)CC1)c1cccc2c1CN(C1CCC(=O)NC1=O)C2=O (stereo partly shown) [Compound 106, 3-(4-((4-aminobutyl)(((1s,4s)-4-aminocyclohexyl)methyl)amino)-1-oxoisoindolin-2-yl)piperidine-2,6-dione, 2HCl]
100 to 1000 nM	NCCCCN(C[C@H]1CC[C@H](N)CC1)c1cccc2c1CN(C1CCC(=O)NC1=O)C2=O (stereo partly shown) [Compound 107, 3-(4-((4-aminobutyl)(((1r,4r)-4-aminocyclohexyl)methyl)amino)-1-oxoisoindolin-2-yl)piperidine-2,6-dione, HCl]
< 100 nM	CCCCCN(CCC(C)(C)CN)c1cccc2c1CN(C1CCC(=O)NC1=O)C2=O (stereo not shown) [Compound 123, 3-(4-((4-amino-3,3-dimethylbutyl)(pentyl)amino)-1-oxoisoindolin-2-yl)piperidine-2,6-dione hydrochloride]
< 100 nM	CC(C)(CN)CCN(CCCCN)c1cccc2c1CN(C1CCC(=O)NC1=O)C2=O (stereo not shown) [Compound 124, 3-(4-((4-amino-3,3-dimethylbutyl)(4-aminobutyl)amino)-1-oxoisoindolin-2-yl)piperidine-2,6-dione dihydrochloride]
100 to 1000 nM	CC(C)(CCN)CCN(CCCCN)c1cccc2c1CN(C1CCC(=O)NC1=O)C2=O (stereo not shown) [Compound 125, 3-(4-((5-amino-3,3-dimethylpentyl)(4-aminobutyl)amino)-1-oxoisoindolin-2-yl)piperidine-2,6-dione dihydrochloride]
< 100 nM	CC(C)(CN)CCCN(CCCCN)c1cccc2c1CN(C1CCC(=O)NC1=O)C2=O (stereo not shown) [Compound 126, 3-(4-((5-amino-4,4-dimethylpentyl)(4-aminobutyl)amino)-1-oxoisoindolin-2-yl)piperidine-2,6-dione dihydrochloride]
100 to 1000 nM	CCCCCN(CCCCNC(=O)NC)c1cccc2c1CN(C1CCC(=O)NC1=O)C2=O (stereo not shown) [Compound 143, 1-(4-((2-(2,6-dioxopiperidin-3-yl)-1-oxoisoindolin-4-yl)(pentyl)amino)butyl)-3-methylurea]
> 1000 nM	CCCCCN(CCCCNC(=O)CC(C)(C)C)c1cccc2c1CN(C1CCC(=O)NC1=O)C2=O (stereo not shown) [Compound 150, N-(4-((2-(2,6-dioxopiperidin-3-yl)-1-oxoisoindolin-4-yl)(pentyl)amino)butyl)-3,3-dimethylbutanamide]
100 to 1000 nM	CCCCCN(CCCCNC(=O)CNC)c1cccc2c1CN(C1CCC(=O)NC1=O)C2=O (stereo not shown) [Compound 181, N-(4-((2-(2,6-dioxopiperidin-3-yl)-1-oxoisoindolin-4-yl)(pentyl)amino)butyl)-2-(methylamino)acetamide]

The remaining lines, values behind:

SMILES	IC50
CCCCCN(C[C@H]1CC[C@@H](N)CC1)c1cccc2c1CN(C1CCC(=O)NC1=O)C2=O (stereo partly shown) [Compound 91, 3-(4-((((1s,4s)-4-aminocyclohexyl)methyl)(pentyl)amino)-1-oxoisoindolin-2-yl)piperidine-2,6-dione, HCl]	< 100 nM
CCCCCN(C[C@H]1CC[C@H](N)CC1)c1cccc2c1CN(C1CCC(=O)NC1=O)C2=O (stereo partly shown) [Compound 92, 3-(4-((((1r,4r)-4-aminocyclohexyl)methyl)(pentyl)amino)-1-oxoisoindolin-2-yl)piperidine-2,6-dione, HCl]	< 100 nM
NCCCCN(c1cccc2c1CN(C1CCC(=O)NC1=O)C2=O)[C@H]1CC[C@@H](N)CC1 (stereo partly drawn) [Compound 102, 3-(4-((4-aminobutyl)((1S,4S)-4-aminocyclohexyl)amino)-1-oxoisoindolin-2-yl)piperidine-2,6-dione dihydrochloride]	100 to 1000 nM
NCCCCN(c1cccc2c1CN(C1CCC(=O)NC1=O)C2=O)[C@H]1CC[C@H](N)CC1 (stereo partly shown) [Compound 103, 3-(4-((4-aminobutyl)((1r,4r)-4-aminocyclohexyl)amino)-1-oxoisoindolin-2-yl)piperidine-2,6-dione, 2HCl]	100 to 1000 nM
NCCCCN(c1cccc2c1CN(C1CCC(=O)NC1=O)C2=O)[C@H]1CC[C@@H](CN)CC1 (stereo partly shown) [Compound 104, 3-(4-((4-aminobutyl)((1s,4s)-4-(aminomethyl)cyclohexyl)amino)-1-oxoisoindolin-2-yl)piperidine-2,6-dione dihydrochloride]	100 to 1000 nM
C[C@H]1CC[C@@H](N(CCCCN)c2cccc3c2CN(C2CCC(=O)NC2=O)C3=O)CC1 (stereo partly shown) [Compound 108, 3-(4-((4-aminobutyl)((1s,4s)-4-methylcyclohexyl)amino)-1-oxoisoindolin-2-yl)piperidine-2,6-dione hydrochloride]	< 100 nM
C[C@H]1CC[C@H](N(CCCCN)c2cccc3c2CN(C2CCC(=O)NC2=O)C3=O)CC1 (stereo partly shown) [Compound 109, 3-(4-((4-aminobutyl)((1r,4r)-4-methylcyclohexyl)amino)-1-oxoisoindolin-2-yl)piperidine-2,6-dione hydrochloride]	100 to 1000 nM
CCCCCN(CCCCNC(=O)CC1CCCCC1)c1cccc2c1CN(C1CCC(=O)NC1=O)C2=O (stereo not shown) [Compound 151, 2-cyclohexyl-N-(4-((2-(2,6-dioxopiperidin-3-yl)-1-oxoisoindolin-4-yl)(pentyl)amino)butyl)acetamide]	> 1000 nM

same assay, conditions: Homo sapiens, MV4-11; IC50 class; MV-4-11 cells, RealTime-Glo after 44 hrs of treatment (TABLE 3); read-out: Cell viability classification

IC50	SMILES
> 1000 nM	C[C@H]1CC[C@@H](N(c2cccc3c2CN(C2CCC(=O)NC2=O)C3=O)[C@H]2CC[C@H](N)CC2)CC1 (stereo partly drawn) [Compound 331, 3-(4-(((1r,4R)-4-aminocyclohexyl)((1s,4S)-4-methylcyclohexyl)amino)-1-oxoisoindolin-2-yl)piperidine-2,6-dione]
